Assay results as given in ChEMBL document CHEMBL1201862, “PubChem BioAssay data set” (2004).
Active and inactive are the calls of the source. For most assays here, no stated cut-off is given here; in the data, actives have a measured IC50 and inactives only a lower limit.

Experiments:
Bcl-2-related protein A1 = biological target: T1, Bcl-2-related protein A1 (Mus musculus, UniProt Q07440); format: functional;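 further: confirmatory dose–response counterscreen on Bfl-1, used to check hits from a UBC13 polyubiquitin inhibitor campaign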
T1 sequence (Q07440 whole entry): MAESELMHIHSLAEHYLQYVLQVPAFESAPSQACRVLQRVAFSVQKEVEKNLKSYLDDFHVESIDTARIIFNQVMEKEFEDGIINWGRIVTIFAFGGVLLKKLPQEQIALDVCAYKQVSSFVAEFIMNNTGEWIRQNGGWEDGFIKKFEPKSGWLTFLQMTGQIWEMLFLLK

[1] = biological target: T2, Ubiquitin-conjugating enzyme E2 N (Homo sapiens, UniProt P61088); format: functional
T2 sequence (P61088 whole entry): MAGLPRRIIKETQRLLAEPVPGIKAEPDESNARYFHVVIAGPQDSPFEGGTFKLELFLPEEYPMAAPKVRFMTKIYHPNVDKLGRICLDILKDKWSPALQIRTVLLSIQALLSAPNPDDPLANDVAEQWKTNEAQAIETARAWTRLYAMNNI

[2] = biological target: T2, Ubiquitin-conjugating enzyme E2 N; format: functional; remark: listed apart in the source
Insulin-degrading enzyme [3] = biological target: T3, Insulin-degrading enzyme (Homo sapiens, UniProt P14735); assay: activators of recombinant IDE enzyme, dose response, counter-screen for IDE activator project, biochemical, fluorescence polarization (AID 588681)
T3 sequence (P14735 whole entry): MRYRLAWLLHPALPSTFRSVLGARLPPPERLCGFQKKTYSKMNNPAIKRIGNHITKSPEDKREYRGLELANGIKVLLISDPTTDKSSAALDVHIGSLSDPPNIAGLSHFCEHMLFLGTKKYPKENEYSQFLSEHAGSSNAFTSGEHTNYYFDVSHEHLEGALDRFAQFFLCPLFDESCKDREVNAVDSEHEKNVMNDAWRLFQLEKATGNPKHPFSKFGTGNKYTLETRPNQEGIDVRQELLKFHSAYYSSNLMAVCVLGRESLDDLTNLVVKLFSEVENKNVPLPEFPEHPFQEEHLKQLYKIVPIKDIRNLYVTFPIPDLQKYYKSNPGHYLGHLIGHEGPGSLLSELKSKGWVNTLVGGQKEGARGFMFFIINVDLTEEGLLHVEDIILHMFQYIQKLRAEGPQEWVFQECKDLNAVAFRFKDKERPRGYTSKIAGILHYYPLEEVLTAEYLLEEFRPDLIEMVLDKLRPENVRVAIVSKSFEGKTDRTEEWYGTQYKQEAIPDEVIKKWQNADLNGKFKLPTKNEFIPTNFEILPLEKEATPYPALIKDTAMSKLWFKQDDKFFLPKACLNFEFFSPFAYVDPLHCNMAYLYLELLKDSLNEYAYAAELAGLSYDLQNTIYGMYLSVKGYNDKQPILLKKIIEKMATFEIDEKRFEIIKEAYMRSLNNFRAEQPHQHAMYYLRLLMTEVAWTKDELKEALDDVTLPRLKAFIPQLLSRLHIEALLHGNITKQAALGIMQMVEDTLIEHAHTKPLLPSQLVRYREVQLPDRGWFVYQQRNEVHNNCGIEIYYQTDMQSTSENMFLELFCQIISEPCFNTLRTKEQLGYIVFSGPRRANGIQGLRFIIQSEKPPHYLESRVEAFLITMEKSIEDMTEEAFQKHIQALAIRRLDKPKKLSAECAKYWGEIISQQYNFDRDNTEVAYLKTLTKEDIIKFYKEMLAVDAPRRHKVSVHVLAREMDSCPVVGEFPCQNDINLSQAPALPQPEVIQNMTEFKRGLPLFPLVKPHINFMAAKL

Insulin-degrading enzyme [4] = biological target: T3, Insulin-degrading enzyme; assay: activators of endogenous IDE in HEK cells, dose response, cell-based, fluorescence polarization (AID 588439); format: functional
HEK293 [5] = assay: HEK cell cytotoxicity by LDH release, dose response, cytotoxicity control for IDE activator project, fluorescence, HEK cells (AID 588440); format: functional, cell-based; details: Homo sapiens;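 further: cytotoxicity by LDH release measuring loss of membrane integrity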
HEK293 [6] = assay: optical interference in Abeta FP readout, dose response, artefact control for IDE activator project, biochemical, fluorescence polarization (AID 588442); format: functional, cell-based; details: Homo sapiens
Caspase-3 [7] = biological target: T4, Caspase-3 (Homo sapiens, UniProt P42574); assay: caspase-3 inhibitors as off-family protease, SAR follow-up, selectivity assay for SENP protease inhibitor project, biochemical, luminescence, set 2 (AID 588599); format: functional
T4 sequence (P42574 whole entry): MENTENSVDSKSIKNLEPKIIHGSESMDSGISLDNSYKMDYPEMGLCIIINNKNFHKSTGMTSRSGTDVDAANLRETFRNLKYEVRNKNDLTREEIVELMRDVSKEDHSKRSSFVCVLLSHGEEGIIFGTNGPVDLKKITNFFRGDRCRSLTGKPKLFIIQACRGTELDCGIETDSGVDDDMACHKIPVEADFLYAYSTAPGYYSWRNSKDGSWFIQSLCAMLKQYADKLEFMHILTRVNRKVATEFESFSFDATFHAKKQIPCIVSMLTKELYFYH

[8] = biological target: T5, Sentrin-specific protease 8 (Homo sapiens, UniProt Q96LD8); assay: SENP8 protease inhibitors, SAR follow-up, biochemical, luminescence, set 2 (AID 588601); format: functional
T5 sequence (Q96LD8 whole entry): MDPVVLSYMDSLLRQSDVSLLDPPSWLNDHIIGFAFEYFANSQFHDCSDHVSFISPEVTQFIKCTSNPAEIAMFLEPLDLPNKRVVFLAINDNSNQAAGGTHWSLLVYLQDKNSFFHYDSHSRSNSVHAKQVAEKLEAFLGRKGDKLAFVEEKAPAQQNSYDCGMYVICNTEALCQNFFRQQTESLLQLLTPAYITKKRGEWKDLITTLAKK

[9] = biological target: T6, Sentrin-specific protease 7 (Homo sapiens, UniProt Q9BQF6); assay: SENP7 protease inhibitors, SAR follow-up, biochemical, luminescence, set 2 (AID 588600); format: functional
T6 sequence (Q9BQF6 whole entry): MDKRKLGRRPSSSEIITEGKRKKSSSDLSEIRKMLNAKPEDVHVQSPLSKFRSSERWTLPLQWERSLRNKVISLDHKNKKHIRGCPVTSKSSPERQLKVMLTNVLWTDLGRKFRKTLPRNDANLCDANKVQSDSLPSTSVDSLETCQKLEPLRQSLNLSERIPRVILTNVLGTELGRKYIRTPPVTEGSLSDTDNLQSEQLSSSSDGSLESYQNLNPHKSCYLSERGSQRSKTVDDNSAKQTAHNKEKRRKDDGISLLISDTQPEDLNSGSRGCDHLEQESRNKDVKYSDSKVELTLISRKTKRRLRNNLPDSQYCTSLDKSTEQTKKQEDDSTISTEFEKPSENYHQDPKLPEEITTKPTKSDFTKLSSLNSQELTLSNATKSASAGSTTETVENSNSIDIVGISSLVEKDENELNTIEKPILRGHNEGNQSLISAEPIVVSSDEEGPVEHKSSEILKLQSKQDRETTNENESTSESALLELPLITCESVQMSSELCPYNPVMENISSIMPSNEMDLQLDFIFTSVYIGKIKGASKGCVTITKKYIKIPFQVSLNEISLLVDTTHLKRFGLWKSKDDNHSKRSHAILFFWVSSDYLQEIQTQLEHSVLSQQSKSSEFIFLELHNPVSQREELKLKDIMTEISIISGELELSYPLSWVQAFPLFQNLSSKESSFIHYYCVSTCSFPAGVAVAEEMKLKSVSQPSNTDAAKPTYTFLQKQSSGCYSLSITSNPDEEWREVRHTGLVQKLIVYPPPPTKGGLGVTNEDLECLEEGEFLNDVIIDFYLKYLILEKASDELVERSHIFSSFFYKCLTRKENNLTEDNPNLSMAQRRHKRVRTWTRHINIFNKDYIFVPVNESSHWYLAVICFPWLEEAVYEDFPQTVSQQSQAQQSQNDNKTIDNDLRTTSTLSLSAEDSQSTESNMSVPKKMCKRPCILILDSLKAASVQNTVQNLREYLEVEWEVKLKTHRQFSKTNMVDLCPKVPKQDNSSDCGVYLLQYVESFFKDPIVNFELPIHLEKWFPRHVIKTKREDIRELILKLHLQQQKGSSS

[10] = biological target: T7, Sentrin-specific protease 6 (Homo sapiens, UniProt Q9GZR1); assay: SENP6 protease inhibitors, SAR follow-up, biochemical, luminescence, set 2 (AID 588598); format: functional
T7 sequence (Q9GZR1 whole entry): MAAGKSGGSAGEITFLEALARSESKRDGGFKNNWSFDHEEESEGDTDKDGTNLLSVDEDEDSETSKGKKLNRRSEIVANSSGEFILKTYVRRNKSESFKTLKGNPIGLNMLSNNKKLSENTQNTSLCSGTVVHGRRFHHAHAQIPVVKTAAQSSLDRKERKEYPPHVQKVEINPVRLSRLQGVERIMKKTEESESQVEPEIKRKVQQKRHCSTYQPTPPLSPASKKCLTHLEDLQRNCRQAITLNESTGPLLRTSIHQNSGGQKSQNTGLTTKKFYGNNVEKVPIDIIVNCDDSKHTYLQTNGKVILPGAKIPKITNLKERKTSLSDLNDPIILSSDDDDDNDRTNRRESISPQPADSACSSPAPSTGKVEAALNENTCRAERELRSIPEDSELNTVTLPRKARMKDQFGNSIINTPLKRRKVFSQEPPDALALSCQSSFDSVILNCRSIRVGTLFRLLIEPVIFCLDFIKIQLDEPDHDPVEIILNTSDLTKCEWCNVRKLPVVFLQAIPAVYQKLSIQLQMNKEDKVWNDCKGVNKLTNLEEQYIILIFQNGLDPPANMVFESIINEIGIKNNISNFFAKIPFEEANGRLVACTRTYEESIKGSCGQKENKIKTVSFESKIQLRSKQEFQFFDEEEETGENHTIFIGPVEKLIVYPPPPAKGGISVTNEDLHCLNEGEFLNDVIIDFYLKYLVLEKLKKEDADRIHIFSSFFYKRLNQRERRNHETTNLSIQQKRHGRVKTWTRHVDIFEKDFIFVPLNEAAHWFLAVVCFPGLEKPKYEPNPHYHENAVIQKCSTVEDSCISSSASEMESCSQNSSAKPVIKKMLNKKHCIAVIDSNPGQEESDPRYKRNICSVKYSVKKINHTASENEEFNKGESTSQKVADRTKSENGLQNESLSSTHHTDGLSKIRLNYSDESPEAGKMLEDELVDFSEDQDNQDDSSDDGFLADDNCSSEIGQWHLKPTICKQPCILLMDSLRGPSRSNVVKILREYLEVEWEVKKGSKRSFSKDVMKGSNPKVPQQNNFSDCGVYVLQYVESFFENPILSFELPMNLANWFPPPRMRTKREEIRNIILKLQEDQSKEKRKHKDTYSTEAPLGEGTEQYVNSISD

[11] = biological target: T5, Sentrin-specific protease 8; assay: SENP8 protease inhibitors, SAR follow-up, biochemical, luminescence (AID 504501); format: functional
Caspase-3 [12] = biological target: T4, Caspase-3; assay: SAR Analysis of small molecule inhibitors of Sentrin-specific proteases (SENPs) using a Caspase-3 Selectivity assay. [Related pubchem assays (depositor defined):AID2540, AID2599, AID434973, AID489001]; format: functional
[13] = biological target: T7, Sentrin-specific protease 6; assay: SAR Analysis of small molecule inhibitors of Sentrin-specific protease 6 (SENP6) using a Luminescent assay. [Related pubchem assays (depositor defined):AID2582, AID2599]; format: functional
[14] = biological target: T6, Sentrin-specific protease 7; assay: SENP7 protease inhibitors, SAR follow-up, biochemical, luminescence (AID 504497); format: functional

IC50 (Caspase-3 [7])	IC50 [9]	IC50 [10]	IC50 (Caspase-3 [12])	IC50 [13]	IC50 [14]	Structure (SMILES)	IC50 (Bcl-2-related protein A1)	IC50 [1]	IC50 [2]	EC50 (Insulin-degrading enzyme [3])	EC50 (Insulin-degrading enzyme [4])	IC50 (HEK293 [5])	EC50 (HEK293 [6])	IC50 [8]	IC50 [11]
			> 99 µM (inactive)	> 99 µM (inactive)	> 99 µM (inactive)	O=C(CCc1ccccc1)NNc1cc(N2CCOCC2)nc(N2CCOCC2)n1									> 99 µM (inactive)
0.749 µM (active)	0.987 µM (active)	0.938 µM (active)	0.72 µM (active)	0.79 µM (active)	0.92 µM (active)	CCCCc1ccc2nc(NC(=O)c3cccn3C)sc2c1								0.944 µM (active)	0.81 µM (active)

The next lines start with the compound.

Structure (SMILES)	IC50 (Caspase-3 [7])	IC50 [9]	IC50 [10]	IC50 (Caspase-3 [12])	IC50 [13]	IC50 [14]	IC50 (Bcl-2-related protein A1)	IC50 [1]	IC50 [2]	EC50 (Insulin-degrading enzyme [3])	EC50 (Insulin-degrading enzyme [4])	IC50 (HEK293 [5])	EC50 (HEK293 [6])	IC50 [8]	IC50 [11]
C#CCOCCOCCOCCNc1nc(N2CCN(C(=O)CCCCCCCCCCNC(=O)[C@H](CCCCN)n3cc(C[C@@H](C)CC)nn3)CC2)nc(N2CCN(C(=O)CCCCCCCCCCNC(=O)[C@H](CCCN=C(N)N)n3cc(C[C@@H](C)CC)nn3)CC2)n1							4.6 µM (active)	2 µM (active)	1.44 µM (active)	> 2.03 µM (active)	> 2.03 µM (active)	2.17 µM (active)	> 54.7 µM (inactive)		
O=C(c1ccccc1)C1NC1c1ccccc1 (configuration not stated)										> 54.7 µM (inactive)	> 54.7 µM (inactive)	> 89.3 µM (inactive)	> 54.7 µM (inactive)		
Cc1ccc2nc(NC(=O)c3cccc(S(=O)(=O)NCC4CCCO4)c3)sc2c1 (configuration not stated)	> 99 µM (inactive)	> 99 µM (inactive)	> 99 µM (inactive)											> 99 µM (inactive)	
